Columns and labels:
Type in all cases: cell-based, human
NOTCH reporter activity = assay: NOTCH reporter vector assay in OMM1 uveal melanoma cells
Experimental: (§1) FIG. 9: NOTCH signaling controls uveal melanoma cell growth and migration. (A) OMIVI1 uveal melanoma cells were transfected with the NOTCH reporter vector before being treated or not with DLL4 1μg/ml in absence or presence of BMS-906024 10 μM. Data shown are mean +SD of three experiments. ***p<0.001 and *p<0.05. (B) 3D spheroid assays of 92.1 cells exposed to DAPT 10μg/ml or BMS-906024 lOpM for 96 h. Surface of the imaged spheroid area was determined. ***p<0.001. Representative images are shown. (C) Boyden chambers experiments with 92.1 cells treated or not with DLL4 1 μg/ml. Data shown are mean+SD of three experiments. **p<0.01. Representative images are shown.
Human uveal melanoma cell lines Me127051, 92.152, OMM2.551 were grown in RPMI glutamax supplemented with 10% FBS, OMM153 were grown in DMEM glutamax supplemented with Sodium Pyruvate 1%, MEM Essential Vitamin Mixture 1%, NEAA 1%, Hepes 1%, 10% FBS, MP46, MP65 (from ATCC) were grown in DMEM/F12 w/Glutamine 10% FBS, Glutamax 2mM, Insulin-Transferin-Selenium 0.5x at 37° C. in a humidified atmosphere containing 5% CO2. LipofectamineTM RNAiMAX and opti-MEM medium were purchased from Invitrogen (San Diego, CA, USA). BMS-906024 (#BM0018) and DAPT (#5942) were obtained from Sigma, DLL4 from R&D systems (#1506-D4-050).

[1] = test system: 92.1 primary uveal melanoma cells; assay: 3D spheroid (melanosphere) assay of 92.1 cells; conditions: 96 h
From the text: FIG. 8: HES6 knockdown inhibits uveal melanoma anchorage-dependent and—independent cell growth. (A) Q-RT-PCR showing HES6 level in OMM2.5 metastatic melanoma cells transfected with a control siRNA (siCtl) or two different pools of multiple siRNA targeting HES6 (siHES6#1 and siHES6#2). (B-C) Colony formation assay of OMM2.5 and OMM1 metastatic uveal melanoma cells treated with control siRNA or with two different pools of multiple siRNA targeting HES6 (siHES6#1 and siHES6#2). Representative images are shown. (D) 92.1 primary uveal melanoma cells expressing doxycycline-inducible control or two different HES6 shRNA in presence of 1 μg/ml doxycycline for 72 hrs. Efficiency is shown by RT-QPCR. ***p<0.001 (E) Colony formation assay of 92.1 primary uveal melanoma cells expressing doxycycline-inducible control or two different HES6 shRNA. Representative images are shown. Crystal violet was next dissolved and measured at 490 nm. ***p<0.001. (F) 3D spheroid assays of 92.1 cells expressing doxycycline-inducible control or HES6 shRNA in presence of 1 μg/ml doxycycline for 96 hrs. Surface of the imaged spheroid area was determined. ***p<0.001. Representative images are shown.
FIG. 9: NOTCH signaling controls uveal melanoma cell growth and migration. […] Surface of the imaged spheroid area was determined. ***p<0.001. […]

92.1 cells = assay: Boyden chamber migration of 92.1 cells; conditions: DLL4 1 μg/ml
Experimental: as §1
FIG. 11: HES6 inhibition impairs metastatic uveal melanoma cells motile ability. Migration of 92.1 cells expressing doxycycline-inducible control or HES6 shRNA in presence of 1 μg/ml doxycycline for 48 hrs in presence or absence of DLL4 1 μg/ml. ***p<0.001. Representative images are shown.
(§2) Cell migration was assessed using a modified Boyden chamber assay with 8-μm pore filter inserts for 24-well plates (BD Bioscience). Cells were seeded on the upper chamber of a trans-well and DMEM 7% FBS placed into the lower chamber. Cells adherent to the underside of the filters were fixed with 4% PFA, stained with 0.4% crystal violet and five random fields at x20 magnification were counted. […]

[2] = test system: Me1270 primary uveal melanoma cells; assay: Migration of Me1270 cells; conditions: Me1270 cells expressing doxycycline-inducible HES6 shRNA, doxycycline 1 μg/ml 48 hrs, DLL4 1 μg/ml
From the text: FIG. 6: HES6 expression in primary uveal melanomas controls the motile ability. (A) Relative expression of HES/HEY gene family (TCGA dataset). (B) Human primary uveal Me1270 melanoma cells were transfected with a control siRNA (siCtl) or two different pools of multiple siRNA targeting HES6 (siHES6#1 and siHES6#2). siRNA efficacy is shown by RT-QPCR. (C) Migration Me1270 cells transfected with the indicated siRNA. ***p<0.001. Representative images are shown. (D) Colony formation assay of Me1270 cells transfected with the indicated siRNA. ***p<0.001. Representative images are shown.
FIG. 10: HES6 signaling is a key driver of aggressive and motile phenotypes. Migration of Me1270 cells expressing doxycycline-inducible control or HES6 shRNA in presence of 1 μg/ml doxycycline for 48 hrs in presence or absence of DLL4 1 *g/ml. ***p<0.001. Representative images are shown.
Briefly, a single pulse of 50 nM of HES6 siRNA (Dharmacon L-008408-00-0005 and […]
as §2, with “Cells were seeded on the upper chamber of a trans-well and DMEM 7% FBS placed into the lower chamber.” left out

## CN1C(=O)[C@@H](NC(=O)[C@H](CCC(F)(F)F)[C@H](CCC(F)(F)F)C(N)=O)N=C(c2ccccc2)c2ccccc21 [BMS-906024, reference compound]
NOTCH reporter activity; DLL4 1μg/ml in presence of BMS-906024 10 μM
  effect on DLL4-increased NOTCH reporter activity: inhibited
[1]; BMS-906024 lOpM
  melanosphere formation (surface of spheroid area): reduced

## O=C(O)CN(CC(=O)O)CC(O)CN(CC(=O)O)CC(=O)O [DAPT, diaminopropanol tetraacetic acid]
[1]; DAPT 10μg/ml
  melanosphere formation (surface of spheroid area): reduced

## DLL4: Delta-like ligand 4, NOTCH natural ligand, from R&D systems (#1506-D4-050)
NOTCH reporter activity; DLL4 1μg/ml
  NOTCH reporter activity: increased
92.1 cells; 92.1 cells expressing doxycycline-inducible HES6 shRNA, doxycycline 1 μg/ml 48 hrs
  migration in HES6 knockdown cells: could no longer increased migration
92.1 cells; 92.1 cells
  uveal melanoma cell migration: enhanced
[2]
  migration in HES6 knockdown cells: could no longer increased migration
